Data published in patent US20070066680A1, “Benzofurans and benzothiophenes” (priority 2003, published 2007).
Marks after values point to notes of the source that are not given here.

Each molecule was assayed on insulin secretion (assay: Test of insulin secretion according to Endocrinology, 1992 vol. 130 (1) pp. 167-178). Settings: Rattus norvegicus, INS1; compounds tested at 10^−5 M; read-out: SEC INS1 (% of insulin secretion).
Type: cell-based
Protocol: Test of Insulin Secretion According to the Method Described in Endocrinology, 1992 vol. 130 (1) pp. 167-178
The insulin-secreting activities are collated in Table B. The compounds according to the invention were tested at a concentration of 10^−5 M.

Going from `O=C(COc1c(C(=O)c2ccccc2)sc2ccccc12)c1ccc(Cl)cc1` [Product 1] to `N#Cc1ccc(C(=O)c2sc3ccccc3c2OCC(=O)c2ccccc2)cc1` [Product 69], the activity at 10 µM falls from 206% to 179%.

Going from `COc1ccccc1C(=O)COc1c(C(=O)c2ccccc2)sc2ccccc12` [Product 3] to `COc1ccc(C(=O)COc2c(C(=O)c3ccccc3)sc3ccccc23)c(OC)c1` [Product 14], the activity at 10 µM rises from 244% to 287%.

First: COc1cccc(C(=O)COc2c(C(=O)c3ccccc3)sc3ccccc23)c1 [Product 8]
Second: COc1ccccc1C(=O)COc1c(C(=O)c2ccc(C#N)cc2)sc2ccccc12 [Product 70]
The activity at 10 µM of the first is higher: 193% for the first, 189% for the second.

First: CC(C)(C)C(=O)COc1c(C(=O)c2ccccc2)sc2ccccc12 [Product 15, 1-(2-benzoylbenzo[b]thiophen-3-yloxy)-3,3-dimethylbutan-2-one]
Second: N#Cc1ccc(C(=O)c2sc3ccccc3c2OCc2ccccc2)cc1 [Product 59]
The activity at 10 µM of the first is lower: 207% for the first, 229% for the second.

First: N#Cc1ccc(C(=O)c2sc3ccccc3c2OCc2ccccc2C#N)cc1 [Product 42]
Second: N#Cc1ccc(C(=O)c2sc3ccccc3c2OCc2cccc(C#N)c2)cc1 [Product 43]
The activity at 10 µM of the first is higher: 283% for the first, 257% for the second.

Compared with `N#Cc1ccc(C(=O)c2sc3ccccc3c2OCc2c(Cl)cccc2Cl)cc1` [Product 55], `CS(=O)(=O)c1ccc(COc2c(C(=O)c3ccc(C#N)cc3)sc3ccccc23)cc1` [Product 66] is higher in activity at 10 µM: 174% for the first, 202% for the second.

Going from `Cc1ccc(C(=O)COc2c(C(=O)c3ccc(C#N)cc3)sc3ccccc23)cc1` [Product 72] to `COc1ccccc1C(=O)COc1c(C(=O)c2ccccc2)oc2ccccc12` [Product 86], the activity at 10 µM falls from 185% to 164%.

These molecules were tested on isolated islets of Langerhans (assay: Insulin secretion in isolated rat islets of Langerhans, static incubation, RIA). Settings: product 10^−5 M; glucose 2.8 mM; 90 minutes incubation; stimulation if factor >= 130%.
Type: cell-based
Protocol: Study of the Activity on Isolated Rat Islets
Effect of the chemical compounds on insulin secretion as a function of the glucose concentration, in vitro, in isolated islets of Langerhans in static incubation (Table C):
The islets of Langerhans obtained by digestion of exocrine pancreatic tissue with collagenase, and then purified on Ficoll gradient, are incubated for 90 minutes in the presence of two concentrations of glucose, (2.8 mM or 8 mM), in the presence or absence of the chemical compound. The insulin secretion is assayed by RIA in the incubation medium.
The potential of the various chemical compounds to stimulate insulin secretion is estimated by calculating the stimulation factor*.
A compound stimulates the secretion of insulin if this factor is greater than or equal to 130% for a given dose of glucose. [formula] • where: • G=secretion of insulin (pmol/min. islet) in the presence of glucose alone
G+product=secretion of insulin (pmol/min. islet) in the presence of the same concentration of glucose and of the test chemical compound.

First: O=C(COc1c(C(=O)c2ccccc2)sc2ccccc12)c1ccc(Cl)cc1 [Product 1]
Second: CC(C)(C)C(=O)COc1c(C(=O)c2ccccc2)sc2ccccc12 [Product 15, 1-(2-benzoylbenzo[b]thiophen-3-yloxy)-3,3-dimethylbutan-2-one]
The “Insulin secretion stimulation factor, Product + G2.8 mM” value of the first is lower: 98% for the first, 119% for the second.

For `N#Cc1ccc(C(=O)c2sc3ccccc3c2OCc2cccc(C#N)c2)cc1` [Product 43], the “Insulin secretion stimulation factor, Product + G2.8 mM” value was 108%.

Same assay, conditions: product 10^−5 M; glucose 8 mM; 90 minutes incubation; stimulation if factor >= 130%

Compared with `O=C(COc1c(C(=O)c2ccccc2)sc2ccccc12)c1ccc(Cl)cc1` [Product 1], `CC(C)(C)C(=O)COc1c(C(=O)c2ccccc2)sc2ccccc12` [Product 15, 1-(2-benzoylbenzo[b]thiophen-3-yloxy)-3,3-dimethylbutan-2-one] is higher in “Insulin secretion stimulation factor, Product + G8 mM” value: 135% for the first, 152% for the second.

In the case of `N#Cc1ccc(C(=O)c2sc3ccccc3c2OCc2cccc(C#N)c2)cc1` [Product 43], the “Insulin secretion stimulation factor, Product + G8 mM” value is reported as 135%.

Same assay, conditions: product 10^−6 M; glucose 2.8 mM; 90 minutes incubation; stimulation if factor >= 130%

With `CC(C)(C)C(=O)COc1c(C(=O)c2ccccc2)sc2ccccc12` [Product 15, 1-(2-benzoylbenzo[b]thiophen-3-yloxy)-3,3-dimethylbutan-2-one] the “Insulin secretion stimulation factor, Product + G2.8 mM” value was 125%.

Same assay, conditions: product 10^−6 M; glucose 8 mM; 90 minutes incubation; stimulation if factor >= 130%

For `CC(C)(C)C(=O)COc1c(C(=O)c2ccccc2)sc2ccccc12` [Product 15, 1-(2-benzoylbenzo[b]thiophen-3-yloxy)-3,3-dimethylbutan-2-one], the “Insulin secretion stimulation factor, Product + G8 mM” value was 183%.

Each molecule was assayed on NOSTZ diabetic rats (assay: Antidiabetic activity (glycaemia) in NOSTZ diabetic rats). Settings: 50 mg/kg/day orally, repeated for 4 days, blood two hours after the fourth treatment.
Type: in vivo, rat
Protocol: Study of the Antidiabetic Activity in NOSTZ rats Effect/Dose of compound 15, in vivo, in the case of NOSTZ diabetic rats (Table D): NOSTZ rats, made diabetic by injection of steptozotocin on the day of birth (Portha et al.; 1974), are treated, orally, daily by administration of 50-100-200 mg/kg of body weight of compound 15, of 200 mg/kg of metformin (reference antidiabetic agent) or of methylcellulose (controls). Blood samples are taken from the anaesthetized animal two hours after the fourth treatment. The glycaemia is measured via the colorimetric method using glucose dehydrogenase. The antidiabetic activity of the compounds of the formula (I) orally was determined on an experimental model of non-insulin-dependent diabetes, induced in rats with steptozotocin. The model of non-insulin-dependent diabetes is obtained in the rats by means of a neonatal injection of steptozotocin. The diabetic rats used are eight weeks old. The animals are housed, from the day of birth to the day of the experiment, in an animal house at a regulated temperature of 21 to 22° C. and subjected to a fixed cycle of light (from 7 a.m. to 7 p.m.) and darkness (from 7 p.m. to 7 a.m.). Their food consisted of a maintenance diet, and water and food were given “ad libitum”, with the exception of fasting two hours before the tests, during which period the food is removed (post-absorptive state). The rats are treated orally for one (D1) or four (D4) days with the test product. Two hours after the final administration of the product and 30 minutes after anaesthetizing the animals with pentobarbital sodium (Nembutal®), a 300 μl blood sample is taken from the end of the tail.

`CC(C)(C)C(=O)COc1c(C(=O)c2ccccc2)sc2ccccc12` [Product 15, 1-(2-benzoylbenzo[b]thiophen-3-yloxy)-3,3-dimethylbutan-2-one] was tested, and the “Percentage of variation of glycaemia relative to the controls” value was −13%*.

Same assay, conditions: 100 mg/kg/day orally, repeated for 4 days, blood two hours after the fourth treatment

In the case of `CC(C)(C)C(=O)COc1c(C(=O)c2ccccc2)sc2ccccc12` [Product 15, 1-(2-benzoylbenzo[b]thiophen-3-yloxy)-3,3-dimethylbutan-2-one], the “Percentage of variation of glycaemia relative to the controls” value is reported as −23%**.

Same assay, conditions: 200 mg/kg/day orally, repeated for 4 days, blood two hours after the fourth treatment

Going from `CC(C)(C)C(=O)COc1c(C(=O)c2ccccc2)sc2ccccc12` [Product 15, 1-(2-benzoylbenzo[b]thiophen-3-yloxy)-3,3-dimethylbutan-2-one] to `CN(C)C(=N)N=C(N)N` [metformin, reference compound], the “Percentage of variation of glycaemia relative to the controls” value falls from −18%** to −29%**.
